Legend:
CSK(h) = biological target: T1, CSK(h) (Homo sapiens, UniProt P41240); experiment: Upstate KinaseProfiler radio-enzymatic filter binding assay; assay type: biochemical; settings: read-out: percentage inhibition CSK(h)
T1 construct: purchased Upstate
Procedure: (§1) Compounds of the invention are assessed for their ability to inhibit individual members of the kinase panel. The compounds are tested in duplicates at a final concentration of 10 μM following this generic protocol. Note that the kinase buffer composition and the substrates vary for the different kinases included in the “Upstate KinaseProfiler™” panel. Kinase buffer (2.5 μL, 10×—containing MnCl2 when required), active kinase (0.001-0.01 Units; 2.5 μL), specific or Poly(Glu4-Tyr) peptide (5-500 μM or 0.01 mg/ml) in kinase buffer and kinase buffer (50 μM; 5 μL) are mixed in an eppendorf on ice. A Mg/ATP mix (10 μL; 67.5 (or 33.75) mM MgCl2, 450 (or 225) μM ATP and 1 μCi/μl [γ-^32P]-ATP (3000 Ci/mmol)) is added and the reaction is incubated at about 30° C. for about 10 minutes. The reaction mixture is spotted (20 μL) onto a 2 cm×2 cm P81 (phosphocellulose, for positively charged peptide substrates) or Whatman No. 1 (for Poly (Glu4-Tyr) peptide substrate) paper square. The assay squares are washed 4 times, for 5 minutes each, with 0.75% phosphoric acid and washed once with acetone for 5 minutes. The assay squares are transferred to a scintillation vial, 5 ml scintillation cocktail are added and ^32P incorporation (cpm) to the peptide substrate is quantified with a Beckman scintillation counter. Percentage inhibition is calculated for each reaction.

SAPK3(h) = biological target: T2, SAPK3(h) (Homo sapiens, UniProt P53778); experiment: as above; assay type: biochemical; settings: read-out: percentage inhibition SAPK3(h)
T2 construct: purchased Upstate
Procedure: as §1

PKA(h) = biological target: T3, PKA(h) (Homo sapiens, UniProt P17612); experiment: as above; assay type: biochemical; settings: read-out: percentage inhibition PKA(h)
T3 construct: purchased Upstate
Procedure: as §1

Abl(T315L) = biological target: T4, Abl(T315L) (Homo sapiens, UniProt P00519, T315I); experiment: as above; assay type: biochemical; settings: read-out: percentage inhibition Abl(T315L)
T4 construct: purchased Upstate
Procedure: as §1

Fes(h) = biological target: T5, Fes(h) (Homo sapiens, UniProt P07332); experiment: as above; assay type: biochemical; settings: read-out: percentage inhibition Fes(h)
T5 construct: purchased Upstate
Procedure: as §1

p70S6K(h) = biological target: T6, p70S6K(h) (Homo sapiens, UniProt P23443); experiment: as above; assay type: biochemical; settings: read-out: percentage inhibition p70S6K(h)
T6 construct: purchased Upstate
Procedure: as §1

Tie2(h) = biological target: T7, Tie2(h) (Homo sapiens, UniProt Q02763); experiment: as above; assay type: biochemical; settings: read-out: percentage inhibition Tie2(h)
T7 construct: purchased Upstate
Procedure: as §1

Met(h) = biological target: T8, Met(h) (Homo sapiens, UniProt P08581); experiment: as above; assay type: biochemical; settings: read-out: percentage inhibition Met(h)
T8 construct: purchased Upstate
Procedure: as §1

PKD2(h) = biological target: T9, PKD2(h) (Homo sapiens, UniProt Q9BZL6); experiment: as above; assay type: biochemical; settings: read-out: percentage inhibition PKD2(h)
T9 construct: purchased Upstate
Procedure: as §1

TrkB(h) = biological target: T10, TrkB(h) (Homo sapiens, UniProt Q16620); experiment: as above; assay type: biochemical; settings: read-out: percentage inhibition TrkB(h)
T10 construct: purchased Upstate
Procedure: as §1

SAPK2p(h) = biological target: T11, SAPK2p(h) (Homo sapiens, UniProt Q15759); experiment: as above; assay type: biochemical; settings: read-out: percentage inhibition SAPK2p(h)
T11 construct: purchased Upstate
Procedure: as §1

SAPK2a(h) = biological target: T12, SAPK2a(h) (Homo sapiens, UniProt Q16539); experiment: as above; assay type: biochemical; settings: read-out: percentage inhibition SAPK2a(h)
T12 construct: purchased Upstate
Procedure: as §1

Abl(m) = biological target: T13, Abl(m) (Mus musculus, UniProt P00520); experiment: as above; assay type: biochemical; settings: read-out: percentage inhibition Abl(m)
T13 construct: purchased Upstate
Procedure: as §1

PKCα(h) = biological target: T14, PKCα(h) (Homo sapiens, UniProt P17252); experiment: as above; assay type: biochemical; settings: read-out: percentage inhibition PKCα(h)
T14 construct: purchased Upstate
Procedure: as §1

c-RAF(h) = biological target: T15, c-RAF(h) (Homo sapiens, UniProt P04049); experiment: as above; assay type: biochemical; settings: read-out: percentage inhibition c-RAF(h)
T15 construct: purchased Upstate
Procedure: as §1

JNK1α1(h) = biological target: T16, JNK1α1(h) (Homo sapiens, UniProt P45983); experiment: as above; assay type: biochemical; settings: read-out: percentage inhibition JNK1α1(h)
T16 construct: purchased Upstate
Procedure: as §1

MKK4(m) = biological target: T17, MKK4(m) (Mus musculus, UniProt P47809); experiment: as above; assay type: biochemical; settings: read-out: percentage inhibition MKK4(m)
T17 construct: purchased Upstate
Procedure: as §1

IKKα(h) = biological target: T18, IKKα(h) (Homo sapiens, UniProt O15111); experiment: as above; assay type: biochemical; settings: read-out: percentage inhibition IKKα(h)
T18 construct: purchased Upstate
Procedure: as §1

MKK6(h) = biological target: T19, MKK6(h) (Homo sapiens, UniProt P52564); experiment: as above; assay type: biochemical; settings: read-out: percentage inhibition MKK6(h)
T19 construct: purchased Upstate
Procedure: as §1

PDGFRα(h) = biological target: T20, PDGFRα(h) (Homo sapiens, UniProt P16234); experiment: as above; assay type: biochemical; settings: read-out: percentage inhibition PDGFRα(h)
T20 construct: purchased Upstate
Procedure: as §1

PAK2(h) = biological target: T21, PAK2(h) (Homo sapiens, UniProt Q13177); experiment: as above; assay type: biochemical; settings: read-out: percentage inhibition PAK2(h)
T21 construct: purchased Upstate
Procedure: as §1

[1] = biological target: T22, F317L Bcr-abl (Ba/F3 cells) (Homo sapiens, UniProt P00519, F317L); experiment: Proliferation of Ba/F3 cells expressing F317L Bcr-abl; assay type: cell-based
T22 construct: expressed in transfected cells; host or cells: Ba/F3 (murine pro-B cells); the other entry of the earlier key: BCR (P11274, Breakpoint cluster region protein)
Procedure: 32D-p210 cells are plated into 96 well TC plates at a density of 15,000 cells per well. 50 μL of two fold serial dilutions of the test compound (Cmax is 40 μM) are added to each well (STI571 is included as a positive control). After incubating the cells for 48 hours at 37° C., 5% CO2, 15 μL of MTT (Promega) is added to each well and the cells are incubated for an additional 5 hours. The optical density at 570 nm is quantified spectrophotometrically and IC50 values, the concentration of compound required for 50% inhibition, determined from a dose response curve.
Compounds of the invention are tested for their antiproliferative effect on Ba/F3 cells expressing either wild type or the mutant forms of BCR-Abl (G250E, E255V, T315I, F317L, M351T) that confers resistance or diminished sensitivity to STI571. The antiproliferative effect of these compounds on the mutant-BCR-Abl expressing cells and on the non transformed cells were tested at 10, 3.3, 1.1 and 0.37 μM as described above (in media lacking IL3). The IC50 values of the compounds lacking toxicity on the untransformed cells were determined from the dose response curves obtained as describe above.

T12 sequence (Q16539 whole entry): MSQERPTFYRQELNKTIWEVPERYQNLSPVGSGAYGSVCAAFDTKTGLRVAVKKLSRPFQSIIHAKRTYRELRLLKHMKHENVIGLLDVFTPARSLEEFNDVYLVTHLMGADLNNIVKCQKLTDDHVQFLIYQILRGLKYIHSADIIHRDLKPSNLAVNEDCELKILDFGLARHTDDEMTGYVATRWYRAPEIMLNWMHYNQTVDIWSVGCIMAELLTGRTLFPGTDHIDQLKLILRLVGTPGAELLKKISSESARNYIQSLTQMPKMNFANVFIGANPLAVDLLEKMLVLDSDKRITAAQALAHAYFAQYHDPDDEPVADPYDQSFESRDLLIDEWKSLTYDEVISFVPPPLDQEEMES
T15 sequence (P04049 whole entry): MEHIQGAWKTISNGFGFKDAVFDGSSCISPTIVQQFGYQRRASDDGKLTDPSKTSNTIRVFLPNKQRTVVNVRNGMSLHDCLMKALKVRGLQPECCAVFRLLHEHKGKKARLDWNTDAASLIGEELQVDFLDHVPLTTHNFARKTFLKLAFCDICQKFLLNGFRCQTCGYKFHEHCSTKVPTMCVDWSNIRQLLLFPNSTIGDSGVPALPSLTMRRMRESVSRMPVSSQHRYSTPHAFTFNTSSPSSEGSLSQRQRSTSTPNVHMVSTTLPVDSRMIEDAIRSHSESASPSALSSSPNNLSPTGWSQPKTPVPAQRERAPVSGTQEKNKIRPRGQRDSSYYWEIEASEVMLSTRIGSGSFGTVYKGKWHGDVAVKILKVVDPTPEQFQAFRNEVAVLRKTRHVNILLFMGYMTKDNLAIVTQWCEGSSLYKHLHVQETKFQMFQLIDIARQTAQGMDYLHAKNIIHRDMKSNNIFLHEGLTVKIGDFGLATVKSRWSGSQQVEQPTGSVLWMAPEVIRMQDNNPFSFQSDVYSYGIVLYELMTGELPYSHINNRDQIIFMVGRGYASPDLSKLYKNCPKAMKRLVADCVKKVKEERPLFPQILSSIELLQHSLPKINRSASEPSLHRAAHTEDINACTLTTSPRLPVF
T20 sequence (P16234 24-1089): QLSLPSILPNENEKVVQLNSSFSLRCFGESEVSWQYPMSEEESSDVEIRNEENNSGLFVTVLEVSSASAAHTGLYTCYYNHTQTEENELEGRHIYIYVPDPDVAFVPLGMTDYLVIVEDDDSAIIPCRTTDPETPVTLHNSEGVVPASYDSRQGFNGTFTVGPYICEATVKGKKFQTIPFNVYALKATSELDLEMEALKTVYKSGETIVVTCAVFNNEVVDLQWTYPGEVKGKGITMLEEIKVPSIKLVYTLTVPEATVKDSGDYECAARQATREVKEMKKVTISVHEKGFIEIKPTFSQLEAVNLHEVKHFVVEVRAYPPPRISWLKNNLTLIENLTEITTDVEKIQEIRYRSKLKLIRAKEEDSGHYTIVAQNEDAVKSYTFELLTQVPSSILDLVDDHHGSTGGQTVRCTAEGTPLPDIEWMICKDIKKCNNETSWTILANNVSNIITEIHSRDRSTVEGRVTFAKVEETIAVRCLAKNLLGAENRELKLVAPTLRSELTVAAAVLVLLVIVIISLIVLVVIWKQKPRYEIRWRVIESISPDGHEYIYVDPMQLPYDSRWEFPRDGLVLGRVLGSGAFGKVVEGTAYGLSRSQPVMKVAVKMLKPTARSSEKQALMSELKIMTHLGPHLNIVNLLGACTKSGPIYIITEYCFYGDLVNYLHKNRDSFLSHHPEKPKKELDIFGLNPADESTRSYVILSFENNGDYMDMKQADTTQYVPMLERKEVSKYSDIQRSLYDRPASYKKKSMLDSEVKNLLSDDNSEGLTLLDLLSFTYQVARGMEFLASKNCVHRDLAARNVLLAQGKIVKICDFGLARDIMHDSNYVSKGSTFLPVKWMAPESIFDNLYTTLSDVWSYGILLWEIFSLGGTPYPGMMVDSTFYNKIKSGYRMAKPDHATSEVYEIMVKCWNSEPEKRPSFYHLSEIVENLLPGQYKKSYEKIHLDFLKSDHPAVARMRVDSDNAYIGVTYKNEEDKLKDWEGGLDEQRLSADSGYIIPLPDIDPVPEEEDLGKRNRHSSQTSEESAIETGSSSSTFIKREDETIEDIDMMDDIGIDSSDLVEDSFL
T19 sequence (P52564 whole entry): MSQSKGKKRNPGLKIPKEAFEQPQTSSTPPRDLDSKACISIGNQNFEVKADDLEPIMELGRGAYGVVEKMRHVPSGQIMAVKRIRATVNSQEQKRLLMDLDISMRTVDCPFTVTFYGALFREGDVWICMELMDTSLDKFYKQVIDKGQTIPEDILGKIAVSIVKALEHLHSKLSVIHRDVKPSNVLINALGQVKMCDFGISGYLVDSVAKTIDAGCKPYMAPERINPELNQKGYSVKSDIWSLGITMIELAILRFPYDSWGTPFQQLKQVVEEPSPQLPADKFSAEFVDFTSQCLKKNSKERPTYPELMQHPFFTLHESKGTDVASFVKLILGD
T10 sequence (Q16620 32-822): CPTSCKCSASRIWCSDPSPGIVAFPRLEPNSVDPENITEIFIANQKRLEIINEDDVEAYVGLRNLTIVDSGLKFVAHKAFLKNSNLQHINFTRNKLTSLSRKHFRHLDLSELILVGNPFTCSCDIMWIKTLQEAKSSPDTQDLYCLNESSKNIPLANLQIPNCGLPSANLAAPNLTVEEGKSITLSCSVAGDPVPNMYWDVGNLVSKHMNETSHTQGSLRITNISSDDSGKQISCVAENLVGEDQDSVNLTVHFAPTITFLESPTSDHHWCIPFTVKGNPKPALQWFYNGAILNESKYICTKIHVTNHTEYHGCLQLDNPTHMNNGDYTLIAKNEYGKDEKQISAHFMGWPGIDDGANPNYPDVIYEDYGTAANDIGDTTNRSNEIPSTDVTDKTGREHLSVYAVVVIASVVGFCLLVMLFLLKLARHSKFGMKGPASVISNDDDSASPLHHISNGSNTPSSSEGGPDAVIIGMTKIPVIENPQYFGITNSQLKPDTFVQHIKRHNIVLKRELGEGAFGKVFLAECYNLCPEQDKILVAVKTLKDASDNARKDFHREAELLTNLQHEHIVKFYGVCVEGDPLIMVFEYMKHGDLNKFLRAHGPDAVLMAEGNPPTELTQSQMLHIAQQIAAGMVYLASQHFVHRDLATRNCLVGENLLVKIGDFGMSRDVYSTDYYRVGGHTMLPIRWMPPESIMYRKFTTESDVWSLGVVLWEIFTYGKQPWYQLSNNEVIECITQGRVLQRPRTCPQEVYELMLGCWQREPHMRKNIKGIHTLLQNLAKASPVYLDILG
T17 sequence (P47809 whole entry): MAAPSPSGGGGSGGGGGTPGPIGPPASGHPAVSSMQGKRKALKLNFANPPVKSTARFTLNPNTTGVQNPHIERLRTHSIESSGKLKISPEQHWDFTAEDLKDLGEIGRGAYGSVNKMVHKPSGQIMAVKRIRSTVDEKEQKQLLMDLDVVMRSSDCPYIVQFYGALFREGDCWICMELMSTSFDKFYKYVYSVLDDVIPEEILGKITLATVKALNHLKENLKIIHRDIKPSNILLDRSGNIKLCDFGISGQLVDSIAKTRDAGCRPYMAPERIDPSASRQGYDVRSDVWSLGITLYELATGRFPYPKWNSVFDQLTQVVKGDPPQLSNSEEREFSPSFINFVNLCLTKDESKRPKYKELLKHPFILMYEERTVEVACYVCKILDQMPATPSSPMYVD
T8 sequence (P08581 25-1390): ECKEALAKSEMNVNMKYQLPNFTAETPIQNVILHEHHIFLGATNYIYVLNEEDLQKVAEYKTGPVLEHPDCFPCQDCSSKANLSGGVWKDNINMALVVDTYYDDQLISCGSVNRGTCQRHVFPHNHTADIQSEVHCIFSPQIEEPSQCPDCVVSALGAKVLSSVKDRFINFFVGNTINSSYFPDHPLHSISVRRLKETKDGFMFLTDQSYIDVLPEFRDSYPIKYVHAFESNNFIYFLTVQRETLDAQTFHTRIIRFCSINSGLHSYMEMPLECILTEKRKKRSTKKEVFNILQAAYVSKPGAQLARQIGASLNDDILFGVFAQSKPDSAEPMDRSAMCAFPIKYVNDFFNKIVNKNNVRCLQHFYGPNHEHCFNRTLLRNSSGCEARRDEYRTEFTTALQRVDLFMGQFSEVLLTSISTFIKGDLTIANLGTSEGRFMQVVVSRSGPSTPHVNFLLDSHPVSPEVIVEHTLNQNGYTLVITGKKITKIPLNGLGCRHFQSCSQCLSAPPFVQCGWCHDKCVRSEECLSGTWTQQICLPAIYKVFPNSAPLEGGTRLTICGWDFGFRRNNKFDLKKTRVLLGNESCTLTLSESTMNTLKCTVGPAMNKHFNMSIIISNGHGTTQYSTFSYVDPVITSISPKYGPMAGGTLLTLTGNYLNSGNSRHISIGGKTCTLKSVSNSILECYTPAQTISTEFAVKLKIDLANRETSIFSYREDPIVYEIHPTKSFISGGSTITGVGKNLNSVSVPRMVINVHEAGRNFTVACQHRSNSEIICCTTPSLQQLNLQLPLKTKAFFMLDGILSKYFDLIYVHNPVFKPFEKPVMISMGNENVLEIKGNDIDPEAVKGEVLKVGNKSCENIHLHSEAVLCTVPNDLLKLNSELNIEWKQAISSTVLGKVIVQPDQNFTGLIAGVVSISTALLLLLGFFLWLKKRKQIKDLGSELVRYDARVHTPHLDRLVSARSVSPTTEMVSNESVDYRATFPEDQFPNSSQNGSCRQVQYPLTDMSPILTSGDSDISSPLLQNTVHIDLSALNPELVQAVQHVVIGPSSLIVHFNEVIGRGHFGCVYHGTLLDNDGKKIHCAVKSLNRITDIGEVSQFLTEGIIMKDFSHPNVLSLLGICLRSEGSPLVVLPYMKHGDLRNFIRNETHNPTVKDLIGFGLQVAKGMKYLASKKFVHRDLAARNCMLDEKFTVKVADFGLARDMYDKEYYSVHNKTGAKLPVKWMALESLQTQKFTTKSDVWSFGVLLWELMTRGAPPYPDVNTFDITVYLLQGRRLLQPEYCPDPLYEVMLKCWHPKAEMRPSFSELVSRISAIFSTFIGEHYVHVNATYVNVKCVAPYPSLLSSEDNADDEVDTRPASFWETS

inhibition at 10 µM (CSK(h)): 100% | inhibition at 10 µM (SAPK3(h)): 92% | inhibition at 10 µM (PKA(h)): 92% | inhibition at 10 µM (Abl(T315L)): 98% | inhibition at 10 µM (Fes(h)): 97% | inhibition at 10 µM (p70S6K(h)): 94% | inhibition at 10 µM (Tie2(h)): 98% | inhibition at 10 µM (Met(h)): 70% | inhibition at 10 µM (PKD2(h)): 94% | inhibition at 10 µM (TrkB(h)): 99% | inhibition at 10 µM (SAPK2p(h)): 85% | inhibition at 10 µM (SAPK2a(h)): 92% | inhibition at 10 µM (Abl(m)): 98% | inhibition at 10 µM (PKCα(h)): 61% | inhibition at 10 µM (c-RAF(h)): 97% | inhibition at 10 µM (JNK1α1(h)): 81% | inhibition at 10 µM (MKK4(m)): 87% | inhibition at 10 µM (IKKα(h)): 98% | inhibition at 10 µM (MKK6(h)): 98% | inhibition at 10 µM (PDGFRα(h)): 93% | inhibition at 10 µM (PAK2(h)): 62% | IC50 [1]: < 5 nM
Compound: CCN1CCN(Cc2ccc(NC(=O)c3ccc(C)c(NC(=O)N(C)c4ncnc5[nH]ccc45)c3)cc2C(F)(F)F)CC1 [Example 4, N-[4-(4-Ethyl-piperazin-1-ylmethyl)-3-trifluoromethyl-phenyl]-4-methyl-3-[3-methyl-3-(7H-pyrrolo[2,3-d]pyrimidin-4-yl)-ureido]-benzamide]

From patent publication US8183248B2, “Substituted pyrrolo[2,3-d]pyrimidines and compositions as protein kinase inhibitors” (IRM LLC, priority 2005, dated 2012)
